According to patent US20200385371A1 (Propellon Therapeutics Inc., priority 2017, published 2020):

Legend:
[1] = molecular target: T1, WDR5 (Homo sapiens, UniProt P61964); test: Surface Plasmon Resonance (SPR) assay; assay type: binding; design: Full length WDR5 with an N-terminal His tag and C-terminal AviTag; His tag (N); made in house; host or cells: E. coli; settings: read-out: SPR Kd
In short: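 Full-length biotinylated WDR5 (N-His, C-AviTag, E. coli) captured (~3000 RU) on streptavidin SA chip; Biacore T200. HBS-EP pH 7.4 plus 5% DMSO running buffer, 40 μl/min.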

[2] = molecular target: T1, WDR5; test: Fluorescence Polarization (FP) binding assay
In short: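 Buffer was pH 6.5 sodium phosphate (80 mM) with 20 mM KCl and 0.008% Triton X-100; 9-Ala-FAM probe at 20 nM used 0.05 μM WDR5 and 480/540 nm polarization, H3 (1-15) probe at 30 nM used 0.3 μM WDR5 and 485/528 nm. Quadruplicate data were hyperbola-fitted to give Kdisp.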

[3] = tested on: MV4-11 cells; test: Cell proliferation assay (ATPlite); assay type: cell-based; settings: Homo sapiens, 120 h; MV4-11 cells, five days; read-out: GI MV411 EC50
In short: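 ATPlite luminescence after five days' culture (37° C, 5% CO2) gives viability. Compounds dosed in 10 concentrations up to 10 μM against DMSO; 1,000 cells/well seeded in Alpha-MEM/10% FBS.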

Kd [1] [µM] | IC50 [2] [µM] | EC50 [3] [µM] | Compound
0.00127 | 0.023 | 0.0583 | C[C@H]1CN(c2cc(F)c(C3=CCN(c4ncc(F)cn4)C3)c(F)c2NC(=O)c2c[nH]c(=O)cc2C(F)(F)F)CCN1C [Example 80, (S)—N-(6-(3,4-dimethylpiperazin-1-yl)-2,4-difluoro-3-(1-(5-fluoropyrimidin-2-yl)-2,5-dihydro-1H-pyrrol-3-yl)phenyl)-6-oxo-4-(trifluoromethyl)-1,6-dihydropyridine-3-carboxamide]
0.00107 | 0.0119 | 0.0157 | CC(C)[C@H]1CN(c2ncc(-c3c(F)cc(N4CCN(C)[C@@H](C)C4)c(NC(=O)c4c[nH]c(=O)cc4C(F)F)c3F)cn2)CCO1 [Example 121, 4-(Difluoromethyl)-N-(6-((S)-3,4-dimethylpiperazin-1-yl)-2,4-difluoro-3-(2-((S)-2-isopropylmorpholino)pyrimidin-5-yl)phenyl)-6-oxo-1,6-dihydropyridine-3-carboxamide]
0.00285 | 0.0201 | 0.286 | C[C@@H]1CN(c2cc(F)c(-c3cnc(N4CCOCC4)nc3)c(F)c2NC(=O)c2cn(C)c(=O)cc2C(F)F)C[C@H](C)N1C [Example 40, N-(2,4-difluoro-3-(2-morpholinopyrimidin-5-yl)-6-((3S,5R)-3,4,5-trimethylpiperazin-1-yl)phenyl)-4-(difluoromethyl)-1-methyl-6-oxo-1,6-dihydropyridine-3-carboxamide]
0.00104 | 0.0196 | 0.0966 | C[C@@H]1CN(c2cc(F)c(-c3cnc(N4CCOCC4)nc3)c(F)c2NC(=O)c2ccc(F)cc2C(F)F)C[C@H](C)N1C [Example 31, N-(2,4-difluoro-3-(2-morpholinopyrimidin-5-yl)-6-((3S,5R)-3,4,5-trimethylpiperazin-1-yl)phenyl)-2-(difluoromethyl)-4-fluorobenzamideformic Acid]
0.00115 | 0.0254 | 0.031 | C[C@@H]1CN(c2ccc(-c3c(F)cc(N4CCN(C)[C@@H](C)C4)c(NC(=O)c4c[nH]c(=O)cc4C(F)F)c3F)cn2)C[C@H](C)O1 [Example 182, 4-(Difluoromethyl)-N-(3-(6-((2S,6R)-2,6-dimethylmorpholino)pyridin-3-yl)-6-((S)-3,4-dimethylpiperazin-1-yl)-2,4-difluorophenyl)-6-oxo-1,6-dihydropyridine-3-carboxamide]
0.0022 | 0.0139 | 0.44 | Cc1nc(C(=O)N2CC=C(c3c(F)cc(N4CCN(C)[C@@H](C)C4)c(NC(=O)c4c[nH]c(=O)cc4C(F)F)c3F)CC2)cs1 [Example 159, (S)-4-(difluoromethyl)-N-(6-(3,4-dimethylpiperazin-1-yl)-2,4-difluoro-3-(1-(2-methylthiazole-4-carbonyl)-1,2,3,6-tetrahydropyridin-4-yl)phenyl)-6-oxo-1,6-dihydropyridine-3-carboxamide]
0.00251 | 0.0224 | 0.198 | C[C@H]1CN(c2cc(F)c(-c3ccc(N4CCOCC4)nc3)c(F)c2NC(=O)c2ccc(F)cc2C(F)F)CCN1C [Example 180, (S)-2-(Difluoromethyl)-N-(6-(3,4-dimethylpiperazin-1-yl)-2,4-difluoro-3-(6-morpholinopyridin-3-yl)phenyl)-4-fluorobenzamide]
0.00126 | 0.011 | 0.0115 | C[C@H]1CN(c2ncc(-c3c(F)cc(N4CCN(C)[C@@H](C)C4)c(NC(=O)c4c[nH]c(=O)cc4C(F)(F)F)c3F)cn2)CCO1 [Example 60, N-(6-((S)-3,4-dimethylpiperazin-1-yl)-2,4-difluoro-3-(2-((S)-2-methylmorpholino)pyrimidin-5-yl)phenyl)-6-oxo-4-(trifluoromethyl)-1,6-dihydropyridine-3-carboxamide]
0.00171 | 0.0195 | 0.191 | C[C@H]1CN(c2cc(F)c(-c3ccc(N4CCOCC4)nc3)c(F)c2NC(=O)c2ccc(F)cc2C(F)(F)F)CCN1C [Example 174, (S)—N-(6-(3,4-dimethylpiperazin-1-yl)-2,4-difluoro-3-(6-morpholinopyridin-3-yl)phenyl)-4-fluoro-2-(trifluoromethyl)benzamide]
0.00191 | 0.0144 | 0.173 | CC(C)OC(=O)N1CCC=C(c2c(F)cc(N3C[C@@H](C)N(C)[C@@H](C)C3)c(NC(=O)c3c[nH]c(=O)cc3C(F)(F)F)c2F)C1 [Example 13, Isopropyl 5-(2,6-difluoro-3-(6-oxo-4-(trifluoromethyl)-1,6-dihydropyridine-3-carboxamido)-4-((3S,5R)-3,4,5-trimethylpiperazin-1-yl)phenyl)-3,6-dihydropyridine-1(2H)-carboxylate]
0.00079 | 0.0138 | 0.0964 | C[C@H]1CN(c2cc(F)c(C3=CCN(c4ncc(C#N)s4)C3)c(F)c2NC(=O)c2c[nH]c(=O)cc2C(F)F)CCN1C [Example 95, (S)—N-(3-(1-(5-cyanothiazol-2-yl)-2,5-dihydro-1H-pyrrol-3-yl)-6-(3,4-dimethylpiperazin-1-yl)-2,4-difluorophenyl)-4-(difluoromethyl)-6-oxo-1,6-dihydropyridine-3-carboxamide]
0.00096 | 0.0101 | 0.0312 | C[C@@H]1CN(c2cc(F)c(C3=CCN(C(=O)OC4(C)CCC4)C3)c(F)c2NC(=O)c2c[nH]c(=O)cc2C(F)(F)F)C[C@H](C)N1C [Example 141, 1-Methylcyclobutyl 3-(2,6-difluoro-3-(6-oxo-4-(trifluoromethyl)-1,6-dihydropyridine-3-carboxamido)-4-((3S,5R)-3,4,5-trimethylpiperazin-1-yl)phenyl)-2,5-dihydro-1H-pyrrole-1-carboxylate]
0.00206 | 0.0141 | 0.153 | C[C@@H]1CN(c2cc(F)c(C3=CCCN(C(=O)OC4CC(F)(F)C4)C3)c(F)c2NC(=O)c2c[nH]c(=O)cc2C(F)(F)F)C[C@H](C)N1C [Example 20, 3,3-Difluorocyclobutyl 5-(2,6-difluoro-3-(6-oxo-4-(trifluoromethyl)-1,6-dihydropyridine-3-carboxamido)-4-((3S,5R)-3,4,5-trimethylpiperazin-1-yl)phenyl)-3,6-dihydropyridine-1(2H)-carboxylate]
0.00232 | 0.0144 | 0.18 | C[C@H]1CN(c2cc(F)c(C3=CCN(C(=O)OC4CC(F)(F)C4)C3)c(F)c2NC(=O)c2c[nH]c(=O)cc2C(F)F)CCN1C [Example 44]
0.00168 | 0.0149 | 0.0618 | CC(C)[C@@H]1CN(c2nccc(-c3c(F)cc(N4CCN(C)[C@@H](C)C4)c(NC(=O)c4c[nH]c(=O)cc4C(F)(F)F)c3F)n2)CCO1 [Example 123, N-(6-((S)-3,4-dimethylpiperazin-1-yl)-2,4-difluoro-3-(2-((R)-2-isopropylmorpholino)pyrimidin-4-yl)phenyl)-6-oxo-4-(trifluoromethyl)-1,6-dihydropyridine-3-carboxamide]
0.00087 | 0.0166 | 0.0368 | C[C@@H]1CN(c2ccc(-c3c(F)cc(N4C[C@@H](C)N(C)[C@@H](C)C4)c(NC(=O)c4c[nH]c(=O)cc4C(F)(F)F)c3F)cn2)CCO1 [Example 168, N-(2,4-difluoro-3-(6-((R)-2-methylmorpholino)pyridin-3-yl)-6-((3S,5R)-3,4,5-trimethylpiperazin-1-yl)phenyl)-6-oxo-4-(trifluoromethyl)-1,6-dihydropyridine-3-carboxamide]
0.00165 | 0.0142 | 0.0299 | C[C@H]1CN(c2cc(F)c(C3=CCN(c4ccnc(C#N)n4)CC3)c(F)c2NC(=O)c2c[nH]c(=O)cc2C(F)F)CCN1C [Example 108, (S)—N-(3-(1-(2-cyanopyrimidin-4-yl)-1,2,3,6-tetrahydropyridin-4-yl)-6-(3,4-dimethylpiperazin-1-yl)-2,4-difluorophenyl)-4-(difluoromethyl)-6-oxo-1,6-dihydropyridine-3-carboxamide]
0.00507 | 0.033 | 0.286 | C[C@@H]1CN(c2nccc(-c3c(F)cc(N4CCN(C)[C@@H](C)C4)c(NC(=O)c4ccc(F)cc4C(F)F)c3F)n2)C[C@H](C)O1 [Example 32, 2-(Difluoromethyl)-N-(3-(2-((2S,6R)-2,6-dimethylmorpholino)pyrimidin-4-yl)-6-((S)-3,4-dimethylpiperazin-1-yl)-2,4-difluorophenyl)-4-fluorobenzamide Formic Acid]
0.00979 | 0.0367 | 1.32 | C[C@@H]1CN(c2nccc(-c3c(F)cc(N4CCN(C)[C@@H](C)C4)c(NC(=O)c4cn(C)c(=O)cc4C(F)(F)F)c3F)n2)C[C@H](C)O1 [Example 56, N-(3-(2-((2S,6R)-2,6-dimethylmorpholino)pyrimidin-4-yl)-6-((S)-3,4-dimethylpiperazin-1-yl)-2,4-difluorophenyl)-1-methyl-6-oxo-4-(trifluoromethyl)-1,6-dihydropyridine-3-carboxamide]
